Laboratory results: patent US10787432B2, “N-[(pyridyloxy)propanyl]benzamides” (Boehringer Ingelheim International GmbH, priority 2016, dated 2020)
Where two headings read alike, the source gives them in different places.

Tests used:
human orexin 2 receptor = target: T1, human orexin 2 receptor (Homo sapiens, UniProt O43614); experiment: Assay B: In vitro testing of OX2R potency: OX2R IP1 (HTRF, CHO-K1/hOX2 cells, Orexin A as agonist); type: cell-based; settings: Orexin A 0.5 nM
T1 construct: stably expressing the full-length human orexin 2 receptor; expressed in transfected cells; host or cells: CHO-K1 (CHO-K1/hOX2), co-expressing aequorin
T1 sequence (O43614 1-444): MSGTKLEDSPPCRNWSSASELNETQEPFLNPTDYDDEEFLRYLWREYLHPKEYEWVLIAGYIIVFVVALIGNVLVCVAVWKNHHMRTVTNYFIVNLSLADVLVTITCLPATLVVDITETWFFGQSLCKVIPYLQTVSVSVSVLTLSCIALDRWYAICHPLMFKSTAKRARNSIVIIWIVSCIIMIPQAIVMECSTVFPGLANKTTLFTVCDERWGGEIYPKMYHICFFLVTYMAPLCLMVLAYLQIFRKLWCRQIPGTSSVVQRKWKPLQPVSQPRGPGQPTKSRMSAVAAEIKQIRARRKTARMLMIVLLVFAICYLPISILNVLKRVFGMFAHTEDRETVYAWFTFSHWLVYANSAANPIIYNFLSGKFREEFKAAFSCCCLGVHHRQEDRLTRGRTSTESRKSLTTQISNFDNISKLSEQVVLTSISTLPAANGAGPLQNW
Description: Activation of the orexin receptors expressed in cell lines results in an increase in intracellular IP3 concentration. IP1, a downstream metabolite of IP3, accumulates in cells following receptor activation and is stable in the presence of LiCl. Using Homogeneous Time-Resolved Fluorescence technology with Lumi4-Tb cryptate (commercially available from Cisbio Bioassay.) and a suitable fluorescence plate reader. […] Chem. Genomics 2009, 3, 22-32. This technique is used to characterize pharmacological modification of the orexin receptors.
B. In Vitro Testing of OX2R Potency: OX2R IP1
IP1 measurements are performed in CHO-K1 cells stably expressing the full-length human orexin 2 receptor and the aequorin photoprotein. Cells are cultivated in Ham's nutrient mixture F12 medium with 10% fetal calf serum, in a 37° C., 95% humidity and 5% CO2 incubator. The CHO-K1/hOX2 cell mass is expanded to larger cell numbers. The cells are obtained as frozen cells in cryo-vials and stored until use at −150° C. The viability of the cells after thawing is >90%. In preparation for the assay, 24 hours before the assay, the cells are thawed at 37° C. and immediately diluted with cell culture medium. After centrifugation, the cell pellet is resuspended in medium and then distributed into the assay plates with a density of 5000 cells/25 μL per well. The plates are incubated for one hour at room temperature to reduce edge effects before they are incubated for 24 hours at 37° C./5% CO2. Compounds are prepared by a 8-point serial dilution in DMSO and a final dilution step into assay buffer (HBSS with 20 mM HEPES, 0.1% BSA and 50 mM LiCl, pH 7.4) to ensure a final DMSO concentration of 1% in the assay.
On the day of the assay, cells in the plate are washed twice with 60 μL assay buffer (20 μL buffer remained in the wells after washing), followed by adding 5 μL per well of compounds diluted in assay buffer. After 15 minutes of incubation at room temperature 5 μL per well of Orexin A peptide (final concentration: 0.5 nM) dissolved in assay buffer is added to the assay plate. The assay plate is incubated for 60 minutes at 37° C. Then 5 μL per well of Anti-IP1-Cryptate Tb solution and 5 μL per well of IP1-d2 dilution are added to all well of the plate and the plate is incubated for a further 60 minutes light protected at room temperature. The emission at 615 nm and 665 nm (Excitation wavelength: 320 nm) are measured using an EnVision reader (PerkinElmer). The ratio between the emission at 665 nm and 615 is calculated by the reader.
8-point four parametric non-linear curve fitting and determination of IC50 values and Hill slopes is performed using a regular analysis software e.g. AssayExplorer (Accelrys). In order to establish an agonist concentration independent parameter, Kb values are calculated using the following equation: IC50/((2+(A/EC50)n)^1/n−1) (with A=concentration agonist, EC50=EC50 agonist, n=Hill slope agonist) (see P. Leff, I. G. Dougall, Trends Pharmacol. Sci. 1993, 14(4), 110-112).
Kb values from Assay A (OX1R) and Assay B (OX2R) can then provide a selectivity ratio which is independent of the agonist (Orexin A) concentration.

[1] = Assay C: Metabolic stability in human liver microsomes (Human MST); type: in vitro ADME; settings: pooled human liver microsomes, pH 7.6; human liver microsomes 1 mg/mL, compound 1 μM, 37° C., NADPH; read-out: Human MST t1/2
Protocol: C. Assessment of Metabolic Stability in Human Liver Microsomes (Human MST)
The metabolic stability of the compounds according to the invention may be investigated as follows:
The metabolic degradation of the test compound is assayed at 37° C. with pooled human liver microsomes. The final incubation volume of 100 μL per time point contains TRIS buffer pH 7.6 at room temperature (0.1 M), MgCl2 (5 mM), microsomal protein (1 mg/mL) and the test compound at a final concentration of 1 μM. Following a short pre-incubation period at 37° C., the reactions are initiated by addition of beta-nicotinamide adenine dinucleotide phosphate, reduced form (NADPH, 1 mM), and terminated by transferring an aliquot into solvent after different time points. After centrifugation (10000 g, 5 min), an aliquot of the supernatant is assayed by LC-MS/MS for the amount of parent compound. The half-life (t1/2) is determined by the slope of the semi-logarithmic plot of the concentration-time profile.

human Orexin 1 receptor = target: T2, human Orexin 1 receptor (Homo sapiens, UniProt O43613); experiment: Assay A: In vitro testing of OX1R potency: OX1R IP1 (HTRF, CHO-K1/hOX1 cells, Orexin A as agonist); type: cell-based; settings: for Kb: read-out: OX1R Kb (Orexin A concentration used)
T2 construct: stably expressing the full-length human Orexin 1 receptor; expressed in transfected cells; host or cells: CHO-K1 (CHO-K1/hOX1), co-expressing aequorin
T2 sequence (O43613 1-425): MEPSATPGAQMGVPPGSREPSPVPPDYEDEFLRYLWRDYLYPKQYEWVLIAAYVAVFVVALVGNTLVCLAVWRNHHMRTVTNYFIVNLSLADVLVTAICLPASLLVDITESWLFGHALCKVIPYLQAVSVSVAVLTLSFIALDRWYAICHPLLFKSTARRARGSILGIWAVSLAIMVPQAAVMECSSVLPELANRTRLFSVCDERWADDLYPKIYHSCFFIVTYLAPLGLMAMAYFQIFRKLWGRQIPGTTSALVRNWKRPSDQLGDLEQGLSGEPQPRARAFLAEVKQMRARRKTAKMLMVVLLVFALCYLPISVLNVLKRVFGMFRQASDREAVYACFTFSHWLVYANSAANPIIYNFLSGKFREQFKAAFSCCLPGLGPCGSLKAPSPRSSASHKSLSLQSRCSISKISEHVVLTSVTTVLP

| Compound | Kb (human orexin 2 receptor) | half-life at 1 μM [1] | OX2R Kb/OX1R Kb (human Orexin 1 receptor; OX1R Kb at 50 nM Orexin A) | Kb (human Orexin 1 receptor; Orexin A 50 nM) | OX2R Kb/OX1R Kb (human Orexin 1 receptor; OX1R Kb at 0.5 nM Orexin A) | Kb (human Orexin 1 receptor; Orexin A 0.5 nM) |
| --- | --- | --- | --- | --- | --- | --- |
| CCN(C(=O)c1cccc(Cl)c1-n1nccn1)[C@@H](C)COc1ccc(C(F)(F)F)cn1 [Example 90] | 13 nM | 44 min | 520 | 0.025 nM | – | – |
| CCN(C(=O)c1ccc(F)cc1-n1nccn1)[C@@H](C)COc1ncc(C(F)(F)F)cc1F [Example 48] | 205 nM | 31 min | 220 | 0.93 nM | 156 | 1.31 nM |
| CCN(C(=O)c1ccccc1-c1noc(C)n1)[C@@H](C)COc1ccc(C(F)(F)F)cn1 [Example 123] | 34 nM | 23 min | 200 | 0.17 nM | – | – |
| CCN(C(=O)c1ccccc1-c1cnn(C)c1)[C@@H](C)COc1ccc(C(F)(F)F)cn1 [Example 93] | 74 nM | 18 min | 99 | 0.75 nM | – | – |
| CCN(C(=O)c1ccc(Cl)cc1-n1nccn1)[C@@H](C)COc1ccc(C(F)(F)F)cn1 [Example 26] | 22 nM | 15 min | 400 | 0.055 nM | – | – |
| CCN(C(=O)c1ccccc1-n1nccn1)[C@@H](C)COc1ccc(Cl)cn1 [Example 46] | 37 nM | 35 min | 56 | 0.66 nM | – | – |
| CCN(C(=O)c1cc(F)ccc1-n1nccn1)[C@@H](C)COc1ncc(C(F)(F)F)cc1F [Example 51] | 189 nM | 36 min | 430 | 0.44 nM | 259 | 0.73 nM |
| CCN(C(=O)c1ccccc1-c1cncc(C#N)c1)[C@@H](C)COc1ccc(C(F)(F)F)cn1 [Example 76] | 124 nM | 11 min | 125 | 0.99 nM | 113 | 1.1 nM |
| CCN(C(=O)c1cc(F)cc(F)c1-n1nccn1)[C@@H](C)COc1ccc(C(F)(F)F)cn1 [Example 13] | 92 nM | 49 min | 511 | 0.18 nM | – | – |
| CCN(C(=O)c1cccc(F)c1-n1nccn1)[C@@H](C)COc1ncc(Br)cc1F [Example 112] | 96 nM | 67 min | 192 | 0.5 nM | 168 | 0.57 nM |
| CCN(C(=O)c1ccc(Cl)cc1-n1nccn1)[C@@H](C)COc1ncc(C(F)(F)F)cc1F [Example 73] | 235 nM | 12 min | 734 | 0.32 nM | – | – |
| CCN(C(=O)c1cccc(F)c1-n1nccn1)[C@@H](C)COc1ncc(C(F)(F)F)cc1F [Example 113] | 69 nM | 95 min | – | – | 173 | 0.4 nM |
| CCN(C(=O)c1cccc(F)c1-c1ncccn1)[C@@H](C)COc1ccc(C(F)(F)F)cn1 [Example 97] | 20 nM | 100 min | 800 | 0.025 nM | – | – |
| CCN(C(=O)c1cccc(F)c1-c1ncccn1)[C@@H](C)COc1ccc(OC(F)(F)F)cn1 [Example 130] | 20 nM | > 130 min | 133 | 0.15 nM | – | – |
| CCN(C(=O)c1cc(F)c(F)cc1-n1nccn1)[C@@H](C)COc1ccc(Cl)cn1 [Example 30] | 160 nM | 52 min | – | – | 70 | 2.3 nM |
| CCN(C(=O)c1ccccc1-c1nnc(C)o1)[C@@H](C)COc1ccc(C(F)(F)F)cn1 [Example 22] | 202 nM | 84 min | 168 | 1.2 nM | 217 | 0.93 nM |
| CCN(C(=O)c1ccccc1-c1ccn(C)c(=O)c1)[C@@H](C)COc1ccc(C(F)(F)F)cn1 [Example 81] | 1670 nM | 39 min | – | – | 575 | 2.9 nM |
| CCN(C(=O)c1ccc(F)c(F)c1-n1nccn1)[C@@H](C)COc1ncc(C(F)(F)F)cc1F [Example 50] | 283 nM | 46 min | 410 | 0.69 nM | – | – |
| CCN(C(=O)c1ccccc1-c1nnc(C)o1)[C@@H](C)COc1ncc(C(F)(F)F)cc1F [Example 68] | 1000 nM | 53 min | – | – | 527 | 1.9 nM |
| CCN(C(=O)c1cccc(F)c1-c1nnc(C)o1)[C@@H](C)COc1ncc(C(F)(F)F)cc1F [Example 61] | 1480 nM | 26 min | – | – | 452 | 3.27 nM |
| CCN(C(=O)c1ccc(OC)cc1-n1nccn1)[C@@H](C)COc1ncc(C(F)(F)F)cc1F [Example 131] | 450 nM | 11 min | 900 | 0.5 nM | 506 | 0.89 nM |
| CCN(C(=O)c1cc(C)ccc1-c1ncccn1)[C@@H](C)COc1ccc(C(F)(F)F)cn1 [Example 105] | 11 nM | 10 min | 524 | 0.021 nM | – | – |
| CCN(C(=O)c1cc(F)ccc1-n1nccn1)[C@@H](C)COc1ccc(Cl)cn1 [Example 29] | 71 nM | 55 min | 81 | 0.88 nM | 71 | 1 nM |
| CCN(C(=O)c1ccc(F)c(F)c1-n1nccn1)[C@@H](C)COc1ccc(C(F)(F)F)cn1 [Example 91] | 68 nM | 18 min | 340 | 0.2 nM | – | – |
